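48-hour exposure; five concentrations; linearly interpolated endpoints. GI50 is the concentration that inhibits growth by half.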 Activity calls are given as the source filed them. Rule as the data show it: active = GI50 up to about 1.1 µM and inactive = higher.

Among the test systems are 786-0; BT-549; CCRF-CEM; HCT-116; HL-60; HOP-62; Hs-578T; IGROV-1; K562; Malme-3M; NCI-H23; NCI-H460; NCI/ADR-RES; OVCAR-3; OVCAR-5; PC-3; RXF 393; SK-MEL-28; SN12C; SR.
What all share (assay): NCI anticancer screen, dose series, 48 h

Regarding `N=C(N)SCc1cccc2c(=O)cc(-c3ccccc3)oc12`, the GI50 with 786-0 was 3.9 µM (inactive); in the assay with BT-549, 13.2 µM (inactive); in the assay with CCRF-CEM it was 3.87 µM (inactive); in the assay with HCT-116 it was 4.73 µM (inactive); in the assay with HL-60 it was 3.18 µM (inactive); in the assay on HOP-62, 10.8 µM (inactive). For the same compound, the GI50 was 16.2 µM (inactive) in the assay with Hs-578T; 6.32 µM (inactive) in the assay with IGROV-1; 5.35 µM (inactive) in the assay on K562; 10.8 µM (inactive) in the assay with Malme-3M; 5.58 µM (inactive) in the assay with NCI-H23; 4.72 µM (inactive) in the assay on NCI-H460. Besides, the GI50 in the assay on NCI/ADR-RES was 22 µM (inactive); in the assay on OVCAR-3, 6.97 µM (inactive); with OVCAR-5 it was 16.5 µM (inactive); in the assay on PC-3 it was 4.54 µM (inactive); in the assay with RXF 393, 4.79 µM (inactive); in the assay on SK-MEL-28, 4.43 µM (inactive). The figures for the GI50 with SN12C and in the assay on SR were 6.19 µM (inactive) and 4.05 µM (inactive), respectively.

Regarding `CN(Cc1ccccc1)Cn1ccnc1`, the GI50 in the assay with 786-0 was 72.9 µM (inactive); with BT-549, > 100 µM (inactive); with CCRF-CEM, 32.2 µM (inactive); with HCT-116 it was 39.4 µM (inactive); in the assay on HL-60 it was > 38.5 µM (inactive); in the assay on HOP-62 it was > 100 µM (inactive). Further, the GI50 with Hs-578T is > 100 µM (inactive); in the assay with IGROV-1, 36.2 µM (inactive); in the assay on K562 it was 34.7 µM (inactive); in the assay with Malme-3M, 24.9 µM (inactive); in the assay on NCI-H23, > 85.5 µM (inactive); with NCI-H460 it was 40.3 µM (inactive). The GI50 was > 100 µM (inactive) with NCI/ADR-RES; > 100 µM (inactive) in the assay with OVCAR-3; > 100 µM (inactive) with OVCAR-5; > 75.9 µM (inactive) in the assay with PC-3; > 100 µM (inactive) with RXF 393; 34.1 µM (inactive) with SK-MEL-28. The GI50 in the assay with SN12C is 95.1 µM (inactive); with SR, 26.2 µM (inactive).

With `CCCCCCc1cc2cc(-c3cn4ccccc4n3)c(=O)oc2cc1O`, the GI50 in the assay on 786-0 is 2.12 µM (inactive); with BT-549, 10.1 µM (inactive); with CCRF-CEM, 19.5 µM (inactive); with HCT-116, 4.55 µM (inactive); in the assay with HL-60, 30.7 µM (inactive); in the assay with HOP-62 it was 11.8 µM (inactive). The GI50 in the assay with Hs-578T was 4.14 µM (inactive); with IGROV-1 it was 11.2 µM (inactive); in the assay with K562 it was 4.61 µM (inactive); in the assay on Malme-3M, 1.71 µM (inactive); with NCI-H23, 5.66 µM (inactive); with NCI-H460 it was 15 µM (inactive). The GI50 was 5.26 µM (inactive) with NCI/ADR-RES; 4.38 µM (inactive) in the assay with OVCAR-3; 21.8 µM (inactive) with OVCAR-5; 18.7 µM (inactive) in the assay with PC-3; 4.14 µM (inactive) in the assay on RXF 393; 9.14 µM (inactive) with SK-MEL-28. Also, the GI50 was 5.35 µM (inactive) in the assay with SN12C and 5.57 µM (inactive) with SR.

`C(/Cc1ccc2c(c1)OCO2)=N\N=C1NCCN1`: the GI50 with 786-0 is > 100 µM (inactive); in the assay with BT-549, 91.2 µM (inactive); in the assay on CCRF-CEM it was > 100 µM (inactive); with HCT-116, 58.9 µM (inactive); with HL-60, 89.1 µM (inactive); in the assay on HOP-62, 56.1 µM (inactive). Besides, the GI50 is > 100 µM (inactive) in the assay on Hs-578T; > 100 µM (inactive) in the assay with IGROV-1; 43.2 µM (inactive) in the assay with K562; > 100 µM (inactive) with Malme-3M; > 100 µM (inactive) in the assay on NCI-H23; 47.8 µM (inactive) in the assay with NCI-H460. For the same compound, the GI50 in the assay with NCI/ADR-RES was > 100 µM (inactive); in the assay on OVCAR-3, > 100 µM (inactive); in the assay on OVCAR-5, 57.3 µM (inactive); with PC-3, 71.3 µM (inactive); in the assay with RXF 393 it was > 100 µM (inactive); in the assay on SK-MEL-28, > 100 µM (inactive). Moreover, the values for the GI50 in the assay with SN12C and in the assay on SR were 84.7 µM (inactive) and 73.5 µM (inactive), respectively.

On to `[O-]c1c2cc(-[n+]3c(-c4ccccc4)cc(-c4ccccc4)cc3-c3ccccc3)cc1CO[C@@H](c1ccccc1)[C@H](c1ccccc1)OCc1cccc(n1)CO[C@@H](c1ccccc1)[C@H](c1ccccc1)OC2`, for which the GI50 is 0.0764 µM (active) with 786-0; 0.057 µM (active) in the assay on BT-549; 0.0314 µM (active) in the assay on CCRF-CEM; 0.0286 µM (active) with HCT-116; 0.0215 µM (active) with HL-60; 0.169 µM (active) with HOP-62. For the same compound, the GI50 is 0.676 µM (active) in the assay with Hs-578T; 0.0388 µM (active) in the assay with IGROV-1; 0.0293 µM (active) with K562; 0.0363 µM (active) with Malme-3M; 0.0569 µM (active) in the assay on NCI-H23; 0.056 µM (active) in the assay with NCI-H460. Also, the GI50 with NCI/ADR-RES was 1.97 µM (inactive); in the assay with OVCAR-3, 0.0299 µM (active); in the assay with OVCAR-5, 0.514 µM (active); in the assay on PC-3, 0.0373 µM (active); with RXF 393, 0.219 µM (active); in the assay on SK-MEL-28 it was 0.713 µM (active). The results for the GI50 with SN12C and with SR were 0.0378 µM (active) and 0.035 µM (active), respectively.

For `C=CC1(CBr)CCC(C(C)(C)Br)O1` (stereo not given), the GI50 with 786-0 is 1.79 µM (inactive); with BT-549 it was 16.7 µM (inactive); with CCRF-CEM, 2.08 µM (inactive); in the assay with HCT-116, 6.64 µM (inactive); in the assay with HL-60, 0.832 µM (active); in the assay on HOP-62 it was 15.9 µM (inactive). Further, the GI50 with Hs-578T is 12.6 µM (inactive); in the assay with IGROV-1, 8.13 µM (inactive); in the assay on K562, 3.71 µM (inactive); in the assay with Malme-3M it was 13.7 µM (inactive); in the assay with NCI-H23 it was 6.98 µM (inactive); in the assay with NCI-H460, 13 µM (inactive). Besides, the GI50 in the assay with NCI/ADR-RES was 10.1 µM (inactive); in the assay with OVCAR-3 it was 9.42 µM (inactive); in the assay with OVCAR-5, 14.7 µM (inactive); with PC-3, 12 µM (inactive); in the assay with RXF 393, 13.7 µM (inactive); with SK-MEL-28, 7.73 µM (inactive). The figures for the GI50 with SN12C and in the assay on SR were 16.6 µM (inactive) and 2.52 µM (inactive), respectively.

With `O=C(O)CNC(=O)CO/N=C1/C(=C2/C(=O)Nc3ccccc32)Nc2ccccc21`, the GI50 with 786-0 was > 100 µM (inactive); in the assay on BT-549, > 100 µM (inactive); with CCRF-CEM, 42.8 µM (inactive); in the assay with HCT-116, > 100 µM (inactive); in the assay on HL-60 it was 57.9 µM (inactive); in the assay on HOP-62, 27.4 µM (inactive). Also, the GI50 in the assay on Hs-578T is > 100 µM (inactive); in the assay with IGROV-1 it was 72.6 µM (inactive); in the assay on K562 it was > 100 µM (inactive); in the assay with Malme-3M it was > 100 µM (inactive); in the assay on NCI-H23, > 100 µM (inactive); with NCI-H460, > 100 µM (inactive). Also, the GI50 is > 100 µM (inactive) in the assay with NCI/ADR-RES; 42.2 µM (inactive) in the assay with OVCAR-3; > 100 µM (inactive) with OVCAR-5; 60.8 µM (inactive) in the assay with PC-3; 55.1 µM (inactive) with RXF 393; > 100 µM (inactive) in the assay on SK-MEL-28. The GI50 in the assay on SN12C was > 100 µM (inactive); in the assay on SR it was 38.5 µM (inactive).

For `COc1c(-c2nc3ccc(N4CCN(C)CC4)cc3[nH]2)cc(OC)c2[nH]c(CO)nc12`, the GI50 was 90.8 µM (inactive) with 786-0; > 100 µM (inactive) with BT-549; 13.3 µM (inactive) with CCRF-CEM; 58.6 µM (inactive) in the assay with HCT-116; 14.1 µM (inactive) in the assay with HL-60; 92.9 µM (inactive) with HOP-62. The GI50 is > 100 µM (inactive) with Hs-578T; > 100 µM (inactive) in the assay on IGROV-1; > 100 µM (inactive) in the assay with K562; > 100 µM (inactive) in the assay on Malme-3M; > 100 µM (inactive) in the assay on NCI-H23; 91 µM (inactive) with NCI-H460. Moreover, the GI50 in the assay with NCI/ADR-RES, in the assay on OVCAR-3, in the assay on OVCAR-5, in the assay on PC-3, with RXF 393 and in the assay with SK-MEL-28 was > 100 µM (inactive) throughout. Further, the GI50 was 74.6 µM (inactive) in the assay on SN12C and > 100 µM (inactive) in the assay with SR.

As to `O=C1C(Cl)=C(NCCO)C(=O)c2c(O)ccc(O)c21`, the GI50 was 5.53 µM (inactive) in the assay on 786-0; 4.26 µM (inactive) in the assay on BT-549; 4.14 µM (inactive) in the assay on CCRF-CEM; 1.95 µM (inactive) in the assay with HCT-116; 2.6 µM (inactive) with HL-60; 3.28 µM (inactive) in the assay on HOP-62. The GI50 in the assay on Hs-578T was 6.56 µM (inactive); in the assay with IGROV-1, 2.49 µM (inactive); in the assay with K562, 2.59 µM (inactive); in the assay with Malme-3M, 1.4 µM (inactive); in the assay with NCI-H23, 2.6 µM (inactive); in the assay on NCI-H460 it was 1.85 µM (inactive). The GI50 was 5.18 µM (inactive) with NCI/ADR-RES; 2.76 µM (inactive) with OVCAR-3; 2.37 µM (inactive) in the assay on OVCAR-5; 2.78 µM (inactive) with PC-3; 1.96 µM (inactive) with RXF 393; 1.92 µM (inactive) in the assay on SK-MEL-28. Also, the GI50 with SN12C was 2.56 µM (inactive); in the assay with SR, 2.41 µM (inactive).

Take `Cc1ccc(/N=N/c2c(O)ccc3cc(S(=O)(=O)O)cc(S(=O)(=O)O)c23)cc1`: the GI50 with 786-0, with BT-549, with CCRF-CEM, in the assay with HCT-116, in the assay with HL-60 and with HOP-62 was > 100 µM (inactive) throughout. The GI50 with Hs-578T, with IGROV-1, in the assay on K562, in the assay on Malme-3M, in the assay on NCI-H23 and in the assay with NCI-H460 was > 100 µM (inactive) in each case. The GI50 in the assay with NCI/ADR-RES, in the assay on OVCAR-3, with OVCAR-5, in the assay with PC-3, with RXF 393 and in the assay with SK-MEL-28 was > 100 µM (inactive) each time. Besides, the GI50 in the assay with SN12C and in the assay on SR was > 100 µM (inactive) in each case.

(Values after ChEMBL document CHEMBL1201862, “PubChem BioAssay data set” (2004).)
